Results published in US9029322B2, “Compounds for enhancing p21 expression and methods of use thereof” (Cornell University, priority 2007, dated 2015).

Key:
[1] = system: mouse or human p21 promoter; test: p21-luciferase reporter screen in stably transfected HT22 cells; format: cell-based; conditions: HT22 lines stably expressing p21-luciferase; positive control
Experimental: To identify novel activators of p21, fragments of the mouse or human p21 promoter were subcloned into the pGL3 basic promoter-reporter construct (see promoter sequence information). The resultant p21-luciferase reporter plasmids were each then stably transfected into a mouse hippocampal cell line, HT22. […] Drugs were added to cells stably expressing p21-luciferase in a 96 well format. The HDAC inhibitor trichostatin A was used as a positive control. After 12 hours of drug treatment, the cells were lysed and luciferase activity was measured using a desktop luminometer. Cell viability was monitored in parallel, so that agents that induce toxicity can quickly be eliminated. Secondary screens including real time PCR or Western blots of p21 were monitored in primary neurons.

[2] = system: arylhydrocarbon receptor (AHR); test: Microarray gene analysis on spinal cord tissue RNA after intraperitoneal dosing; format: in vivo, rats
Experimental: Based on available dosing data, rats were dosed with 1, 5, 10, 15 or 30 mg/kg ciclopirox (intraperiotoneal; 3 animals per concentration). Spinal cord, liver and skeletal muscle tissue was harvested 6-hours after drug delivery. Real-time rt-PCR was performed on RNA extracted from tissues to examine the expression of p21waf1/cip1, arginase-1, and VEGF in order to determine what might be the most efficacious dose.
Microarray gene analysis was also performed on spinal cord tissue RNA to determine gene expression changes that correlate with treatment and dose in an unbiased manner.

[3] = system: contusion injury at the level of T-8; test: Spinal cord contusion injury, single injection after injury; format: in vivo, rats

SMILES	p21-luciferase response [1]	AHR gene expression change in spinal cord (microarray) ([2]; rats, 1, 5, 10, 15 or 30 mg/kg intraperitoneal, tissue harvested 6 hours after drug delivery)	induction of transcription in the spinal cord ([2]; rats, intraperitoneal, in vivo)	blood brain barrier penetration ([2]; rats, intraperitoneal, inferred from spinal cord gene expression changes)	protection (lesion volume) ([3]; single 30 mg/kg intraperitoneal injection 30 minutes after contusion injury at T-8)	effect on behavior (functional improvement) ([3]; single injection after injury)
CC(/C=C/C(=O)NO)=C\[C@@H](C)C(=O)c1ccc(N(C)C)cc1 [trichostatin A]	predicted increases in p21-luciferase	–	–	–	–	–
Cc1cc(C2CCCCC2)n(O)c(=O)c1 [ciclopirox]	–	dose-dependent ciclopirox-regulated gene	could induce transcription in the spinal cord	could penetrate the blood brain barrier	significant protection (reduced lesion volume)	little functional improvement
